Earlier results, collected in patent US20180008711A1, “TRIPLE ANTIBIOTIC CATIONIC OINTMENT” (priority 2015, published 2018).

Tests used:
bacteria = details: very low concentrations
[1] = test system: Staphylococcus aureus (also the methicillin-resistant type, MRSA)
[2] = test system: Aspergillus brasiliensis (mold)
[3] = test system: vancomycin-resistant enterococci
[4] = test system: Klebsiella pneumoniae (carbapenem-resistant enterobacteriaceae)

Substance	bactericidal concentration (bacteria)	fungicidal (fungi)	effective against Pseudomonas aeruginosa (Pseudomonas aeruginosa)	effective against Staphylococcus aureus [1]	effective against Escherichia coli (Escherichia coli)	effective against Candida albicans (Candida albicans (yeast))	effective against Aspergillus brasiliensis [2]	effective against vancomycin-resistant enterococci [3]	effective against Klebsiella pneumoniae [4]
Polyaminopropylbiguanide [PAPB]	10 mg/1	fungicidal	–	–	–	–	–	–	–
polyhexamethylenebiguanide [PHMB]	–	–	effective	effective	effective	effective	effective	effective	effective
